Measurements: patent publication US10738053B2, “Bicyclic compounds as dual ATX/CA inhibitors” (Hoffmann-La Roche Inc., priority 2015, dated 2020)

Assays:
[1] = molecular target: Human carbonic anhydrase II (hCA-II) (Homo sapiens (Human), UniProt P00918); assay: Human carbonic anhydrase-II inhibition assay (absorbance, 4-NPA substrate); type: biochemical; settings: hCA II 8 nM, 4-NPA 2.5 mM, absorbance 340 nm; read-out: CA-II IC50
Experimental: Human Carbonic Anhydrase-II Inhibition Assay
Then 30 μL of 16 nM hCA II solution was added (8 nM final concentration), mixed five times. 30 μL of 4-NPA substrate solution was added (2.5 mM final concentration), mixed five times.

human ATX = human ATX (Homo sapiens (Human), UniProt Q13822); assay: Human ATX enzyme inhibition assay (fluorescence quenching, MR121 substrate); type: biochemical; settings: human His-tagged ATX 30 nM, MR121 substrate 1 μM
Experimental: Production of Human Full Length ATX, with and without His Tag
Autotaxin (ATX-ENPP2) cloning: cDNA was prepared from commercial human hematopoietic cells total RNA and used as template in overlapping PCR to generate a full length human ENPP2 ORF with or without a 3′-6× His tag. These full length inserts were cloned into the pcDNA3.1V5-His TOPO (Invitrogen) vector. The DNA sequences of several single clones were verified. The DNA from a correct full length clone was used to transfect Hek293 cells for verification of protein expression. The sequence of the encoded ENPP2 conforms to Swissprot entry Q13822, with or without the additional C-terminal 6× His tag.
ATX Fermentation: Recombinant protein was produced by large-scale transient transfection in 20 L controlled stirred tank bioreactors (Sartorius). During cell growth and transfection, temperature, stirrer speed, pH and dissolved oxygen concentration were maintained at 37° C., 120 rpm, 7.1 and 30% DO, respectively. FreeStyle 293-F cells (Invitrogen) were cultivated in suspension in FreeStyle 293 medium (Invitrogen) and transfected at ca. 1-1.5×10E6 cells/mL with above plasmid DNAs using X-tremeGENE Ro-1539 (commercial product, Roche Diagnostics) as complexing agent. Cells were fed a concentrated nutrient solution (J Immunol Methods 194 (1996), 19, 1-199 (page 193)) and induced by sodium butyrate (2 mM) at 72 h post-transfection and harvested at 96 h post-transfection. Expression was analyzed by Western Blot, enzymatic assay and/or analytical IMAC chromatography. After cooling the cell suspension to 4° C. in a flow-through heat exchanger, cell separation and sterile filtration of supernatant was performed by filtration through Zeta Plus 60M02 E16 (Cuno) and Sartopore 2 XLG (Sartorius) filter units. The supernatant was stored at 4° C. prior to purification.
ATX Purification: 20 liter of culture supernatant were conditioned for ultrafiltration by adding Brij 35 to a final concentration of 0.02% and by adjusting the pH to 7.0 using 1 M HCl. Then the supernatant was first microfiltred through a 0.2 µm Ultran-Pilot Open Channel PES filter (Whatman) and afterwards concentrated to 1 liter through an Ultran-Pilot Screen Channel PES filter with 30 kDa MWCO (Whatman). Prior to IMAC chromatography, NiSO4 was added to a final concentration of 1 mM. […] The column was washed stepwise with the same buffer containing 20 mM, 40 mM and 50 mM imidazole, respectively. The protein was subsequently eluted using a linear gradient to 0.5 M imidazole in 15 column volumes. ATX containing fractions were pooled and concentrated using an Amicon cell equipped with a 30 kDa PES filter membrane. […] Final yield of protein after purification was 5-10 mg ATX per liter of culture supernatant. The protein was stored at −80° C.
Human ATX Enzyme Inhibition Assay
Test compounds (10 mM stock in DMSO, 8 μL) were obtained in 384 well sample plates (Corning Costar #3655) and diluted with 8 μL DMSO. […] Then, 15 μL of 41.7 nM ATX solution was added (30 nM final concentration), mixed five times and then incubated for 15 minutes at 30° C. 10 μL of MR121 substrate solution was added (1 μM final concentration), mixed 30 times and then incubated for 15 minutes at 30° C.

Row | SMILES | IC50 [1] [nM] | IC50 (human ATX) [nM]
1 | CO[C@]12CN(C(=O)OCc3ncc(C(F)(F)F)cc3NC(=O)C(C)(C)C)C[C@@H]1CN(C(=O)c1ccc(S(N)(=O)=O)cc1F)C2 (racemic) [Example 1.00, trans-5-(2-Fluoro-4-sulfamoyl-benzoyl)-3a-methoxy-hexahydro-pyrrolo[3,4-c]pyrrole-2-carboxylic acid 3-(2,2-dimethyl-propionylamino)-5-trifluoromethyl-pyridin-2-ylmethyl ester] | 5 | 8
2 | CO[C@]12CN(C(=O)OCc3ncc(C(F)(F)F)cc3NC(=O)C(C)(C)C)C[C@@H]1CN(C(=O)c1ccc(S(N)(=O)=O)cc1)C2 (racemic) [Example 1.03, trans-5-(4-sulfamoyl-benzoyl)-3a-methoxy-hexahydro-pyrrolo[3,4-c]pyrrole-2-carboxylic acid 3-(2,2-dimethyl-propionylamino)-5-trifluoromethyl-pyridin-2-ylmethyl ester] | – | 6
3 | NS(=O)(=O)c1ccc(C(=O)N2C[C@H]3CN(C(=O)OCc4ccc(OC(F)(F)F)cc4)C[C@]3(F)C2)cc1 (racemic) [Example 1.04, trans-5-(4-sulfamoyl-benzoyl)-3a-fluoro-hexahydro-pyrrolo[3,4-c]pyrrole-2-carboxylic acid 4-trifluoromethoxy-benzyl ester] | – | 3
4 | CO[C@]12CN(C(=O)OCc3ccc(OC(F)(F)F)cc3)C[C@@H]1CN(C(=O)c1ccc(S(N)(=O)=O)cc1)C2 (racemic) [Example 1.05, trans-5-(4-sulfamoyl-benzoyl)-3a-methoxy-hexahydro-pyrrolo[3,4-c]pyrrole-2-carboxylic acid 4-trifluoromethoxy-benzyl ester] | – | 20
5 | C[C@]12CN(C(=O)OCc3ccc(OC(F)(F)F)cc3)C[C@@H]1CN(C(=O)c1ccc(S(N)(=O)=O)cc1)C2 (racemic) [Example 1.06, trans-3a-methyl-5-(4-sulfamoyl-benzoyl)-hexahydro-pyrrolo[3,4-c]pyrrole-2-carboxylic acid 4-trifluoromethoxy-benzyl ester] | – | 6
6 | CO[C@]12CN(C(=O)CCc3ccc(OC(F)(F)F)cc3)C[C@@H]1CN(C(=O)c1ccc(S(N)(=O)=O)cc1F)C2 (relative stereo) [Example 1.01, trans-4-[3a-methoxy-2-[3-[4-(trifluoromethoxy)phenyl]propanoyl]-3,4,6,6a-tetrahydro-1H-pyrrolo[3,4-c]pyrrole-5-carbonyl]-3-fluorobenzenesulfonamide] | 8 | 10
7 | CO[C@@]12CN(C(=O)c3cc(OCC4CCOCC4)nc(C4CC4)c3)C[C@H]1CN(C(=O)c1ccc(S(N)(=O)=O)cc1F)C2 (relative stereo) [Example 1.02, trans-4-[5-[2-cyclopropyl-6-(oxan-4-ylmethoxy)pyridine-4-carbonyl]-3a-methoxy-3,4,6,6a-tetrahydro-1H-pyrrolo[3,4-c]pyrrole-2-carbonyl]-3-fluorobenzenesulfonamide] | 10 | 6
8 | CO[C@]12CN(C(=O)OCc3ncc(C(F)(F)F)cc3NC(=O)C(C)(C)C)C[C@@H]1CN(C(=O)c1ccc(S(N)(=O)=O)cn1)C2 (relative stereo) [Example 1.07, trans-5-(5-sulfamoylpyridine-2-carbonyl)-3a-methoxy-hexahydro-pyrrolo[3,4-c]pyrrole-2-carboxylic acid 3-(2,2-dimethyl-propionylamino)-5-trifluoromethyl-pyridin-2-ylmethyl ester] | 13 | 6
9 | CO[C@]12CN(C(=O)CCc3ccc(OC(F)(F)F)cc3)C[C@@H]1CN(C(=O)c1ccc(S(N)(=O)=O)cn1)C2 (relative stereo) [Example 1.08, trans-6-[3a-methoxy-2-[3-[4-(trifluoromethoxy)phenyl]propanoyl]-3,4,6,6a-tetrahydro-1H-pyrrolo[3,4-c]pyrrole-5-carbonyl]pyridine-3-sulfonamide] | 18 | 17
10 | CO[C@@]12CN(C(=O)c3cc(OCC4CCOCC4)nc(C4CC4)c3)C[C@H]1CN(C(=O)c1ccc(S(N)(=O)=O)cn1)C2 (relative stereo) [Example 1.09, trans-6-[5-[2-cyclopropyl-6-(oxan-4-ylmethoxy)pyridine-4-carbonyl]-3a-methoxy-3,4,6,6a-tetrahydro-1H-pyrrolo[3,4-c]pyrrole-2-carbonyl]pyridine-3-sulfonamide] | 10 | 10
11 | NS(=O)(=O)c1ccc(C(=O)N2C[C@H]3CN(C(=O)OCc4ccc(OC(F)(F)F)cc4)C[C@]3(F)C2)c(F)c1 (relative stereo) [Example 2.00, trans-5-(2-Fluoro-4-sulfamoyl-benzoyl)-3a-fluoro-hexahydro-pyrrolo[3,4-c]pyrrole-2-carboxylic acid 4-trifluoromethoxy-benzyl ester] | 6 | 7
12 | NS(=O)(=O)c1ccc(C(=O)N2C[C@H]3CN(C(=O)/C=C/c4ccc(OC(F)(F)F)cc4)C[C@]3(F)C2)c(F)c1 (relative stereo) [Example 3.00, trans-4-[3a-Fluoro-2-[(E)-3-[4-(trifluoromethoxy)phenyl]prop-2-enoyl]-3,4,6,6a-tetrahydro-1H-pyrrolo[3,4-c]pyrrole-5-carbonyl]-3-fluorobenzenesulfonamide] | 9 | 5
13 | NS(=O)(=O)c1ccc(C(=O)N2C[C@@H]3CN(C(=O)c4cc(OCC5CCOCC5)nc(C5CC5)c4)C[C@@]3(F)C2)c(F)c1 (relative stereo) [Example 3.02, trans-4-[5-[2-cyclopropyl-6-(oxan-4-ylmethoxy)pyridine-4-carbonyl]-3a-fluoro-3,4,6,6a-tetrahydro-1H-pyrrolo[3,4-c]pyrrole-2-carbonyl]-3-fluorobenzenesulfonamide] | 6 | 8
14 | NS(=O)(=O)c1ccc(C(=O)N2C[C@H]3CN(C(=O)CCc4ccc(OC(F)(F)F)cc4)C[C@]3(F)C2)c(F)c1 (relative stereo) [Example 3.03, trans-4-[3a-fluoro-2-[3-[4-(trifluoromethoxy)phenyl]propanoyl]-3,4,6,6a-tetrahydro-1H-pyrrolo[3,4-c]pyrrole-5-carbonyl]-3-fluorobenzenesulfonamide] | 6 | 4
15 | CO[C@@]12CN(C(=O)OCc3ccc(OC(F)(F)F)cc3)C[C@H]1CN(C(=O)c1ccc(S(N)(=O)=O)cc1)C2 (single isomer, unassigned) [Example 4.01, (−)-trans-5-(4-sulfamoyl-benzoyl)-3a-methoxy-hexahydro-pyrrolo[3,4-c]pyrrole-2-carboxylic acid 4-trifluoromethoxy-benzyl ester] | 18 | 13
16 | NS(=O)(=O)c1ccc(C(=O)N2C[C@@H]3CN(C(=O)OCc4ccc(OC(F)(F)F)cc4)C[C@@]3(F)C2)cc1 (single isomer, unassigned) [Example 4.02, (−)-trans-5-(4-sulfamoyl-benzoyl)-3a-fluoro-hexahydro-pyrrolo[3,4-c]pyrrole-2-carboxylic acid 4-trifluoromethoxy-benzyl ester] | 10 | 8
17 | CO[C@@]12CN(C(=O)OCc3ncc(C(F)(F)F)cc3NC(=O)C(C)(C)C)C[C@H]1CN(C(=O)c1ccc(S(N)(=O)=O)cc1)C2 (single isomer, unassigned) [Example 4.03, (−) trans-5-(4-sulfamoyl-benzoyl)-3a-methoxy-hexahydro-pyrrolo[3,4-c]pyrrole-2-carboxylic acid 3-(2,2-dimethyl-propionylamino)-5-trifluoromethyl-pyridin-2-ylmethyl ester] | 13 | 11
